How the values were obtained:
[1] = test system: ovariectomized (OVX) rats; experiment: ovariectomized (OVX) rat model; format: in vivo; settings: oral daily, 6 weeks
Method: Enoxacin is tested in ovariectomized (OVX) rats that lose bone in a manner similar to that of postmenopausal women. This model has been widely and successfully utilized as an early pre-clinical model for osteoporotic disease (Pun, S., et al. Bone, 2000, 27:197-202; Wronski, T. J., et al. Endocrinology, 1993, 132:823-831; Wronski, T. J., et al. Endocrinology, 1988, 123:681-686; Iwaniec, U. T., et al. Endocrinology, 2002, 143:2515-2526). In this study, the effects of systemic administration of enoxacin are examined.
In this study, ligands identified that block V-ATPase/F-actin interactions and bone resorption in vitro are advanced to in vivo testing in OVX rats. Female Sprague Dawley rats are subjected to sham surgery or ovariectomized at 3 months of age (see the preceding references). On the day after surgery, groups of sham operated control and OVX rats are injected subcutaneously (SC) with vehicle or treated with vehicle via oral gavage. A second group of OVX rats are injected SC 3 days/week with 17β-estradiol (Sigma, St. Louis, Mo.) at a dose of 10 μg/kg to inhibit bone resorption and prevent cancellous bone loss. The animals are treated orally with daily doses of enoxacin including 10, 100 and 400 mg/kg body weight. Each group consist of 10 rats. […] Due to the potential for enoxacin to affect intestinal flora, rats are weighed weekly and closely monitored for weight loss and diarrhea. […]

osteoblast formation = osteoblast formation in mouse marrow cultures, judged by alkaline phosphatase expressing cells; format: cell-based; settings: 1-10 μM
Method: Enoxacin and Binhib 2 were then tested for their effects on osteoclastogenesis stimulated by calcitriol in mouse marrow cultures. The mixed cultures represent a model for the complex interactions that regulate bone resorption in vivo.
In addition, at 1-10 μM enoxacin, osteoclast formation was inhibited while osteoblast formation, judged by alkaline phosphatase expressing cells, was not affected. And, at level of 100 μM, enoxacin blocked 90% of the B subunit from binding F-actin.

[2] = test system: osteoclast formation in calcitriol-stimulated mouse marrow cultures; experiment: osteoclastogenesis stimulated by calcitriol in mouse marrow cultures; format: cell-based
Method: Enoxacin and Binhib 2 were then tested for their effects on osteoclastogenesis stimulated by calcitriol in mouse marrow cultures. The mixed cultures represent a model for the complex interactions that regulate bone resorption in vivo. […] Osteoclast and osteoblast-containing mouse bone marrow cultures are obtained as above described. 4-6-week-old Swiss-Webster mice (Harlan, Indianapolis, Ind.) are sacrificed by cervical dislocation. Femurs and tibias are dissected free of adherent tissue; the marrow is expelled by cutting both bone ends and flushing the marrow cavity with MEM D10 using a 25-gauge needle. The marrow cells are washed twice and plated in 6 well plates at a concentration of 1×10^6 nucleated cells/cm^2 in MEM D1 0 containing 10 nM calcitriol. Cultures are fed on the third and fifth day of culture by replacing half of the medium with fresh medium containing calcitriol. Cultures are treated with enoxacin at 10 μM or vehicle control on Day 1, and when the media is refreshed.

GW bodies = experiment: GW body formation; format: cell-based, mouse
Method: GW bodies: GW bodies have been reported to be correlated with miRNA activity (Pauley, K. M., et al. EMBO Rep. 2006, 7:904-910; Lian, S., et al. Cell Cycle 2006, 5:242-245). Enoxacin, an enhancer of miRNA activity, is predicted to increase the number of GW bodies present and/or increase the size of GW bodies. To test whether enoxacin affects GW body formation, calcitriol-stimulated mouse marrow cultures, RANKL-stimulated primary hematopoietic cells and primary calvarial osteoblasts are treated with enoxacin. A dose response curve using doses above and below the IC50 dose is performed for inhibition of osteoclast formation and bone resorption. Osteoclast formation, staining and enumerating TRAP+ cells, and ruffled membrane formation are examined, by treating preformed osteoclasts on bone slices. Cells are fixed at various time points after treatment with enoxacin, and stain with polyclonal antibody against GW bodies and monoclonal anti-DCP1. The number of GW bodies in at least 100 randomly sampled cells is counted. The number of GW bodies is divided by the number of nuclei/cell, as determined by counting DAPI stained nuclei. This experiment is repeated in triplicate. Counts are performed by pre-calibrated assistants who are blinded to the nature of the experiment. Images are taken using a Zeiss Axiovert 200 M microscope and a Zeiss AxioCam MRm camera using the 40×0.75 NA objective.

[3] = test system: mature osteoclasts on bone slices; experiment: ruffled membrane formation / V-ATPase trafficking in mature osteoclasts on bone slices (anti-E subunit antibody); format: cell-based
Method: FIG. 7 depicts that enoxacin (10 μM) blocks ruffled membrane formation. Mature osteoclasts on bone slices were treated with enoxacin or vehicle control for 3 days, then fixed and labeled with an anti-E subunit antibody. […] Arrows point to representative osteoclasts; The present inventors also tested the effects of enoxacin on osteoclasts that were already mature and loaded onto bone slices. In this experiment, mature osteoclasts on bone slices were treated with enoxacin or vehicle control for 3 days, then fixed and labeled with an anti-E subunit antibody. Control osteoclasts produced many ruffled membranes.

[4] = target: T1, V-ATPase interaction with microfilaments (F-actin) (Mus musculus, UniProt P62814); experiment: immunoprecipitation of V-ATPase from soluble osteoclast extracts; settings: control extracts treated after homogenization, prior to immunoprecipitation
T1 construct: endogenous in cells; host or cells: primary mouse marrow osteoclasts (RANKL-differentiated)
Method: Immunoprecipitations: To further test whether enoxacin disrupts the capacity of V-ATPase to interact with microfilaments, immunoprecipitations are performed from soluble extracts of osteoclasts that had been treated with enoxacin or vehicle control using anti-E subunit and anti-a3 subunit antibodies developed by the present inventors (Zuo, J., et al. J. Bone Miner. Res. 2006, 21:714-721; Lee, B. S., et al. J. Bone Miner. Res., 1999, 14:2127-2136). It is expected that treatments of control extracts with enoxacin after cells are homogenized, but prior to immunoprecipitation, reduces the amount of F-actin attached to the immunoprecipitated V-ATPase.

[5] = target: T2, interaction between recombinantly-expressed B2 subunit and pure rabbit muscle F-actin (Homo sapiens, UniProt P21281); experiment: pelleting assay of B subunit binding to F-actin; settings: 100 uM inhibitor compound; recombinant B subunit 1 μM, F-actin 2 μM; densitometry of SDS-PAGE gels; read-out: % inhibition
T2 construct: made in house
Method: Twenty-one small molecules are tested for their ability to block interaction between recombinantly-expressed B2 subunit and pure rabbit muscle F-actin.
Recombinant B subunit (1 μM) plus/minus F-actin (2 μM)) plus/minus 100 uM inhibitor compounds were incubated for 10 minutes in 20 mM Tris/HCl (pH 7.5), 100 mM NaCl, 1 mM MgCl2, 0.2 mM CaCl2, 0.5 mM ATP, 0.2 mM DTT, then subjected to ultracentrifugation at 180,000×g for 45 min. Supernatants and pellets were collected in SDS-PAGE sample buffer, separated by SDS-PAGE, stained with Coomassie Blue, and densitometry was performed using a Flurchem 8000 (Alpha Innotech, San Leandro Calif.).
The percent inhibition was determined by densitometry of SDS-PAGE gels. The raw densitometric number obtained of the recombinant B subunit band that was pelleted with F-actin, but with no compound present, represented 0% inhibition. The amount of the raw densitometric number of the amount of recombinant B subunit that pelleted with no actin present, but with compound, represented 100% inhibition. The amount of recombinant B subunit that pelleted with actin and the compound being tested was placed as a percentage assuming a linear response.

mouse marrow osteoclasts = experiment: actin ring count on bone slices pre-treated with bis-enoxacin; format: cell-based; settings: bone slices pre-treated at 10 mM and 1 mM; 3 Days of culture
Method: Bone slices were incubated with bis-enoxacin at the concentrations of 10 mM and 1 mM respectively. After a 1 Day incubation, the slices were washed 4 times over a period of 24H. Mouse marrow osteoclasts were then plated on the slices, and after 3 Days of culture the cells were fixed and the number of actin rings (a marker for active osteoclasts) was counted.

[6] = test system: osteoclast formation in mouse marrow cultures; experiment: TRAP staining of mouse marrow cultures treated with bis-enoxacin; format: cell-based; set-up: unit of the concentration uncertain; settings: 1 (unit uncertain)0 mM; 6 Days; TRAP positive cells
Method: Mouse marrow cultures were treated with bis-enoxacin at the concentrations of 5 mM, 10 mM, 25 mM, 50 mM, and 100 mM respectively, for 6 Days in wells of a 24-well plate. The cells were fixed and stained for tartrate-resistant acid phosphatase (TRAP) activity which is a marker for osteoclasts. The number of TRAP positive mononuclear, multinuclear (2-10 nuclei) and giant (>10 nuclei) were counted.

[7] = test system: mouse marrow osteoclasts on bone slices; experiment: bone resorption pitting quantified by scanning electron microscopy; format: cell-based; set-up: dose or concentration left out as unconfirmed; settings: 5 Days
Method: Mouse marrow osteoclasts were grown to maturity for 5 Days then scraped and plated on bone slices treated with bis-enoxacin at the concentrations of 30 mM, 10 mM and 1 mM respectively. After 5 Days, the cells were removed and pitting was quantified by scanning electron microscopy.

T2 sequence (P21281 whole entry): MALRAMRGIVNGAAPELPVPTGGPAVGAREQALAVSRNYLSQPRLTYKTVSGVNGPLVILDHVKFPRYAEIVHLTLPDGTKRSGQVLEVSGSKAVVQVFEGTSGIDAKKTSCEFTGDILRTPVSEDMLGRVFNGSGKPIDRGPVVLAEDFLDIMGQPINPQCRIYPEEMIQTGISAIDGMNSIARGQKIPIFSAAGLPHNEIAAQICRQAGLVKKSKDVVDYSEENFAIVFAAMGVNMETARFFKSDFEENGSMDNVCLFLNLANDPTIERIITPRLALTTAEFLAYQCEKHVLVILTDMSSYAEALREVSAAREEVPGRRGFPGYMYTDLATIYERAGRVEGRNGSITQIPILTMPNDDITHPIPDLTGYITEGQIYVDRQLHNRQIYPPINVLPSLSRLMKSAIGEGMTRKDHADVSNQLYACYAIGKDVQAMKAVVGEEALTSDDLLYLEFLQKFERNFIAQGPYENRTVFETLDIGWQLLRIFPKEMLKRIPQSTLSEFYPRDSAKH
T1 sequence (P62814 whole entry): as the sequence (P21281 whole entry) above, with A25M, V26A, R460K, A464T, F474Y counted along it

CCn1cc(C(=O)O)c(=O)c2cc(F)c(N3CCNCC3)nc21 [enoxacin, 1-ethyl-6-fluoro-4-oxo-7-(piperazin-1-yl)-1,4-dihydro-1,8-naphthyridine-3-carboxylic acid]
ruffled membranes of osteoclasts along the bone surface [1]: does not have ruffled membranes | osteoblast formation, judged by alkaline phosphatase expressing cells (osteoblast formation): not affected | formation of osteoclasts ([2]; 1 μM): significantly reduced | osteoclast formation ([2]; 1-10 μM): inhibited | IC50 ([2]; Osteoclast, calcitriol-stimulated mouse marrow cultures): 1000 nM | osteoclast formation ([2]; concentration not given): inhibits | osteoclast formation ([2]; single dose at the onset of the marrow culture period, end of 7 Days): dramatic reductions | number and/or size of GW bodies (GW bodies): increase | V-ATPase trafficking to ruffled membranes in mature osteoclasts ([3]; 10 μM): completely inhibited | ruffled membrane formation ([3]; 10 μM, 3 days): blocks | ruffled membrane formation ([3]; concentration not given): disrupted | E subunit labeling distribution ([3]; mature osteoclasts on bone slices, 3 days): perinuclear distribution | amount of F-actin attached to the immunoprecipitated V-ATPase [4]: reduces | inhibition at 100 µM [5]: 92%

CCn1cc(C(=O)O)c(=O)c2cc(F)c(N3CCN(CC(P(=O)(O)O)P(=O)(O)O)CC3)nc21 [bis-enoxacin, 7-(4-(2,2-Diphosphonoethyl)piperazin-1-yl)-1-ethyl-6-fluoro-4-oxo-1,4-dihydro-1,8-naphthyridine-3-carboxylic acid]
reduction of actin ring numbers (mouse marrow osteoclasts): approximately 60% | effects on osteoclast formation compared with enoxacin [6]: identical effects | bone resorption compared to control [7]: reduced

From patent US20120046246A1, “METHODS FOR TREATING OSTEOCLAST-RELATED DISEASE, COMPOUNDS AND COMPOSITIONS THEREOF” (University of Florida Research Foundation, priority 2008, published 2012)
